From PubChem BioAssay AID1259407 (Chemical Carcinogenesis Research Information System (CCRIS), 2018)
Entries after “also recorded” stand apart in the source; their conditions may differ. Calls of active or inactive are those of the source. No rule for the calls is given here.

Test system: CCRIS mutagenicity, Ames/micronucleus/aberration tests
Test: CCRIS mutagenicity studies
[1] = Test System: AMES SALMONELLA TYPHIMURIUM, Strain/Indicator: TA98, Metabolic Activation: NONE, Method: PREINCUBATION
[2] = Test System: AMES SALMONELLA TYPHIMURIUM, Strain/Indicator: TA98, Metabolic Activation: RAT, LIVER, S-9, AROCLOR 1254, Method: PREINCUBATION
[3] = Test System: AMES SALMONELLA TYPHIMURIUM, Strain/Indicator: TA100, Metabolic Activation: NONE, Method: PREINCUBATION
[4] = Test System: AMES SALMONELLA TYPHIMURIUM, Strain/Indicator: TA100, Metabolic Activation: RAT, LIVER, S-9, AROCLOR 1254, Method: PREINCUBATION
[5] = Test System: AMES SALMONELLA TYPHIMURIUM, Strain/Indicator: TA1535, Metabolic Activation: NONE, Method: PREINCUBATION
[6] = Test System: AMES SALMONELLA TYPHIMURIUM, Strain/Indicator: TA1537, Metabolic Activation: NONE, Method: PREINCUBATION
[7] = Test System: AMES SALMONELLA TYPHIMURIUM, Strain/Indicator: TA100, Metabolic Activation: RAT, LIVER, S-9, AROCLOR 1254, Method: STANDARD PLATE

CNc1ccc2ncccc2c1N
mutagenic call [1]: inactive; negative | mutagenic call [2]: inactive; negative | mutagenic call [3]: inactive; negative | mutagenic call [4]: inactive; negative

CCCCCCCCO
mutagenic call [1]: inactive; negative | mutagenic call (Test System: AMES SALMONELLA TYPHIMURIUM, Strain/Indicator: TA98, Metabolic Activation: RAT, LIVER, S-9, PHENOBARBITAL AND BETA-NAPHTHOFLAVONE, Method: PREINCUBATION): inactive; negative | mutagenic call [3]: inactive; negative | mutagenic call (Test System: AMES SALMONELLA TYPHIMURIUM, Strain/Indicator: TA100, Metabolic Activation: RAT, LIVER, S-9, PHENOBARBITAL AND BETA-NAPHTHOFLAVONE, Method: PREINCUBATION): inactive; negative | mutagenic call (Test System: AMES SALMONELLA TYPHIMURIUM, Strain/Indicator: TA100, Metabolic Activation: RAT, LIVER, S-9, SODIUM PHENOBARBITAL AND 5,6-BENZOFLAVONE, Method: PREINCUBATION): inactive; negative | mutagenic call (Test System: AMES SALMONELLA TYPHIMURIUM, Strain/Indicator: TA102, Metabolic Activation: NONE, Method: PREINCUBATION): inactive; negative | mutagenic call (Test System: AMES SALMONELLA TYPHIMURIUM, Strain/Indicator: TA102, Metabolic Activation: RAT, LIVER, S-9, PHENOBARBITAL AND BETA-NAPHTHOFLAVONE, Method: PREINCUBATION): inactive; negative | mutagenic call (Test System: AMES SALMONELLA TYPHIMURIUM, Strain/Indicator: TA102, Metabolic Activation: RAT, LIVER, S-9, SODIUM PHENOBARBITAL AND 5,6-BENZOFLAVONE, Method: PREINCUBATION): inactive; negative | mutagenic call (Test System: AMES SALMONELLA TYPHIMURIUM, Strain/Indicator: TA104, Metabolic Activation: NONE, Method: PREINCUBATION): inactive; negative | mutagenic call (Test System: AMES SALMONELLA TYPHIMURIUM, Strain/Indicator: TA104, Metabolic Activation: RAT, LIVER, S-9, PHENOBARBITAL AND BETA-NAPHTHOFLAVONE, Method: PREINCUBATION): inactive; negative | mutagenic call (Test System: AMES SALMONELLA TYPHIMURIUM, Strain/Indicator: TA104, Metabolic Activation: RAT, LIVER, S-9, SODIUM PHENOBARBITAL AND 5,6-BENZOFLAVONE, Method: PREINCUBATION): inactive; negative | mutagenic call [5]: inactive; negative | mutagenic call (Test System: AMES SALMONELLA TYPHIMURIUM, Strain/Indicator: TA1535, Metabolic Activation: RAT, LIVER, S-9, PHENOBARBITAL AND BETA-NAPHTHOFLAVONE, Method: PREINCUBATION): inactive; negative | mutagenic call [6]: inactive; negative | mutagenic call (Test System: AMES SALMONELLA TYPHIMURIUM, Strain/Indicator: TA1537, Metabolic Activation: RAT, LIVER, S-9, PHENOBARBITAL AND BETA-NAPHTHOFLAVONE, Method: PREINCUBATION): inactive; negative | mutagenic call (Test System: E. COLI, Strain/Indicator: WP2UVRA/PKM101, Metabolic Activation: NONE, Method: PREINCUBATION): inactive; negative | mutagenic call (Test System: E. COLI, Strain/Indicator: WP2UVRA/PKM101, Metabolic Activation: RAT, LIVER, S-9, PHENOBARBITAL AND BETA-NAPHTHOFLAVONE, Method: PREINCUBATION): inactive; negative | mutagenic call (Test System: E. COLI, Strain/Indicator: WP2UVRA/PKM101, Metabolic Activation: RAT, LIVER, S-9, SODIUM PHENOBARBITAL AND 5,6-BENZOFLAVONE, Method: PREINCUBATION): inactive; negative | mutagenic call (Test System: E. COLI, Strain/Indicator: WP2UVRA, Metabolic Activation: NONE, Method: PREINCUBATION): inactive; negative | mutagenic call (Test System: E. COLI, Strain/Indicator: WP2UVRA, Metabolic Activation: RAT, LIVER, S-9, PHENOBARBITAL AND BETA-NAPHTHOFLAVONE, Method: PREINCUBATION): inactive; negative

O=S(=O)(O)NO
mutagenic call (Test System: AMES SALMONELLA TYPHIMURIUM, Strain/Indicator: G46, Metabolic Activation: RAT, LIVER, S-9, AROCLOR 1254, Method: STANDARD PLATE): inactive; negative | mutagenic call [7]: inactive; negative

O[C@@H]1C=Cc2ccc3c(ccc4ccccc43)c2[C@H]1O
mutagenic call (Test System: AMES SALMONELLA TYPHIMURIUM, Strain/Indicator: TA98, Metabolic Activation: NONE, Method: STANDARD PLATE): inactive; negative | mutagenic call (Test System: AMES SALMONELLA TYPHIMURIUM, Strain/Indicator: TA98, Metabolic Activation: RAT, LIVER, S-9, AROCLOR 1254, Method: STANDARD PLATE): active; positive | mutagenic call (Test System: AMES SALMONELLA TYPHIMURIUM, Strain/Indicator: TA100, Metabolic Activation: NONE, Method: STANDARD PLATE): inactive; negative | mutagenic call [7]: active; positive

CC(F)(Cl)Cl
mutagenic call (End Point: IN VIVO MICRONUCLEUS, Test System: BONE MARROW, Species: RAT, Strain/Sex: SPRAGUE-DAWLEY/FEMALE, Route: INHALATION): inactive; negative | mutagenic call (End Point: IN VIVO MICRONUCLEUS, Test System: BONE MARROW, Species: RAT, Strain/Sex: SPRAGUE-DAWLEY/MALE, Route: INHALATION): active; positive

NS(=O)(=O)c1cc(C(=O)O)c(NCc2ccco2)cc1Cl
mutagenic call (End Point: IN VITRO CHROMOSOMAL ABERRATIONS, Test System: CHO CELLS, Metabolic Activation: NONE): active; positive; precipitation occurred at 3750 and 5000 ug/ml; also recorded: active; positive; precipitation occurred at 2513 ug/ml | mutagenic call (End Point: IN VITRO CHROMOSOMAL ABERRATIONS, Test System: CHO CELLS, Metabolic Activation: RAT, LIVER, S-9, AROCLOR 1254): active; positive; precipitation occurred at all doses | mutagenic call (Test System: AMES SALMONELLA TYPHIMURIUM, Strain/Indicator: TA98, Metabolic Activation: HAMSTER, LIVER, S-9, AROCLOR 1254 (10%), Method: PREINCUBATION): inactive; negative | mutagenic call (Test System: AMES SALMONELLA TYPHIMURIUM, Strain/Indicator: TA98, Metabolic Activation: HAMSTER, LIVER, S-9, AROCLOR 1254, Method: PREINCUBATION): inactive; negative | mutagenic call [1]: inactive; negative | mutagenic call (Test System: AMES SALMONELLA TYPHIMURIUM, Strain/Indicator: TA98, Metabolic Activation: RAT, LIVER, S-9, AROCLOR 1254 (10%), Method: PREINCUBATION): inactive; negative | mutagenic call [2]: inactive; negative | mutagenic call (Test System: AMES SALMONELLA TYPHIMURIUM, Strain/Indicator: TA100, Metabolic Activation: HAMSTER, LIVER, S-9, AROCLOR 1254 (10%), Method: PREINCUBATION): inactive; negative | mutagenic call (Test System: AMES SALMONELLA TYPHIMURIUM, Strain/Indicator: TA100, Metabolic Activation: HAMSTER, LIVER, S-9, AROCLOR 1254, Method: PREINCUBATION): inactive; negative | mutagenic call [3]: inactive; negative | mutagenic call (Test System: AMES SALMONELLA TYPHIMURIUM, Strain/Indicator: TA100, Metabolic Activation: RAT, LIVER, S-9, AROCLOR 1254 (10%), Method: PREINCUBATION): inactive; negative | mutagenic call [4]: inactive; negative | mutagenic call (Test System: AMES SALMONELLA TYPHIMURIUM, Strain/Indicator: TA1535, Metabolic Activation: HAMSTER, LIVER, S-9, AROCLOR 1254 (10%), Method: PREINCUBATION): inactive; negative | mutagenic call (Test System: AMES SALMONELLA TYPHIMURIUM, Strain/Indicator: TA1535, Metabolic Activation: HAMSTER, LIVER, S-9, AROCLOR 1254, Method: PREINCUBATION): inactive; negative | mutagenic call [5]: inactive; negative | mutagenic call (Test System: AMES SALMONELLA TYPHIMURIUM, Strain/Indicator: TA1535, Metabolic Activation: RAT, LIVER, S-9, AROCLOR 1254 (10%), Method: PREINCUBATION): inactive; negative | mutagenic call (Test System: AMES SALMONELLA TYPHIMURIUM, Strain/Indicator: TA1535, Metabolic Activation: RAT, LIVER, S-9, AROCLOR 1254, Method: PREINCUBATION): inactive; negative | mutagenic call (Test System: AMES SALMONELLA TYPHIMURIUM, Strain/Indicator: TA1537, Metabolic Activation: HAMSTER, LIVER, S-9, AROCLOR 1254 (10%), Method: PREINCUBATION): inactive; negative | mutagenic call (Test System: AMES SALMONELLA TYPHIMURIUM, Strain/Indicator: TA1537, Metabolic Activation: HAMSTER, LIVER, S-9, AROCLOR 1254, Method: PREINCUBATION): inactive; negative | mutagenic call [6]: inactive; negative | mutagenic call (Test System: AMES SALMONELLA TYPHIMURIUM, Strain/Indicator: TA1537, Metabolic Activation: RAT, LIVER, S-9, AROCLOR 1254 (10%), Method: PREINCUBATION): inactive; negative | mutagenic call (Test System: AMES SALMONELLA TYPHIMURIUM, Strain/Indicator: TA1537, Metabolic Activation: RAT, LIVER, S-9, AROCLOR 1254, Method: PREINCUBATION): inactive; negative | mutagenic call (Test System: MOUSE LYMPHOMA, Strain/Indicator: L5178Y (TK+/TK-), Metabolic Activation: NONE, Method: SUSPENSION/PLATE): inactive; negative | mutagenic call (Test System: MOUSE LYMPHOMA, Strain/Indicator: L5178Y (TK+/TK-), Metabolic Activation: RAT, LIVER, S-9, AROCLOR 1254, Method: SUSPENSION/PLATE): active; positive
